Numbers after ± are expanded uncertainties.
Conditions: 101.3 kPa, Liquid

## CO [methanol]
293.15 K
  mass density: 791.9 ± 0.46 kg/m3
  speed of sound: 1121 ± 1 m/s
  viscosity: 0.585 ± 0.008 mPa·s
298.15 K
  mass density: 787.2 ± 0.47 kg/m3
  speed of sound: 1104 ± 1 m/s
  viscosity: 0.545 ± 0.008 mPa·s
303.15 K
  mass density: 782.48 ± 0.47 kg/m3
  speed of sound: 1088 ± 1 m/s
  viscosity: 0.508 ± 0.007 mPa·s

## O [water]
293.15 K
  viscosity: 1.003 ± 0.013 mPa·s
298.15 K
  viscosity: 0.89 ± 0.012 mPa·s
303.15 K
  viscosity: 0.797 ± 0.011 mPa·s

## CCOC(C)=O [ethyl acetate]
293.15 K
  mass density: 900.52 ± 0.3 kg/m3
  speed of sound: 1163 ± 1 m/s
  viscosity: 0.452 ± 0.007 mPa·s
298.15 K
  mass density: 894.43 ± 0.31 kg/m3
  speed of sound: 1140 ± 1 m/s
  viscosity: 0.426 ± 0.006 mPa·s
303.15 K
  mass density: 888.3 ± 0.32 kg/m3
  speed of sound: 1118 ± 1 m/s
  viscosity: 0.403 ± 0.006 mPa·s

## CC(=O)O [acetic acid]
293.15 K
  mass density: 1049.3 ± 0.57 kg/m3
  speed of sound: 1149 ± 2 m/s
  viscosity: 1.211 ± 0.016 mPa·s
298.15 K
  mass density: 1043.65 ± 0.56 kg/m3
  speed of sound: 1132 ± 2 m/s
  viscosity: 1.115 ± 0.015 mPa·s
303.15 K
  mass density: 1038 ± 0.56 kg/m3
  speed of sound: 1115 ± 2 m/s
  viscosity: 1.034 ± 0.014 mPa·s
